Reference: ChEMBL document CHEMBL1149088, “A non-peptide NK1 receptor agonist showing subpicomolar affinity” (J Med Chem, 2004)

Assays:
[1] = target: T1, Substance-P receptor (Homo sapiens, UniProt P25103); test: Binding affinity against human Tachykinin receptor 1 expressed in astrocytoma UC11MG cells using [125I]- SP radioligand; type: cell-based
[2] = target: T1, Substance-P receptor; details: UC11MG
[3] = target: T1, Substance-P receptor; test: Inhibition of labeled SP total binding against human Tachykinin receptor 1 expressed in astrocytoma UC11MG cells by the second binding component; type: cell-based
[4] = test system: Endothelial cell; test: Concentration required to produce maximum effect on postcapillary endothelial cells isolated from bovine heart (CVEC) proliferation; type: functional, cell-based; details: Bos taurus
[5] = test system: Endothelial cell; test: Concentration required to produce cyclic GMP levels in postcapillary endothelial cells isolated from bovine heart (CVEC); type: functional, cell-based; details: Bos taurus
[6] = test system: Endothelial cell; test: Concentration required to produce maximum stimulation in tritiated inositol monophosphate (IP1) level in postcapillary endothelial cells isolated from bovine heart (CVEC); type: functional, cell-based; details: Bos taurus

T1 sequence (P25103 whole entry): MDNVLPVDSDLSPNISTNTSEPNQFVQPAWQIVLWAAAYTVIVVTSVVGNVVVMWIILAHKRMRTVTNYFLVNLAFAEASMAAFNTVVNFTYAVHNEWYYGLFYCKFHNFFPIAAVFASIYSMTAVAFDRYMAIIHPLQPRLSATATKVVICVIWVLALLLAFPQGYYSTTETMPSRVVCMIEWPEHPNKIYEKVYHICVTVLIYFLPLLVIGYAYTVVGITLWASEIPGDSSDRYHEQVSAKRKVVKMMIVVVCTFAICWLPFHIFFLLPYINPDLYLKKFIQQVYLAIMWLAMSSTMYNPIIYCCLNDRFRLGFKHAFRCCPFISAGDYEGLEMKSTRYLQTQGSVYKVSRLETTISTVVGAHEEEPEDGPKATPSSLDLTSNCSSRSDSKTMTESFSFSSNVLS

IC50 [1] [nM] | Binding [2] [%] | Structure (SMILES) | further results
3.1 | 73 | Cc1nc2ccccc2c(-c2ccccc2)c1C(=O)N(C)Cc1cc(C(F)(F)F)cc(C(F)(F)F)c1 | 
180 | 71 | CN(Cc1ccccc1)Cc1nc2ccccc2c(-c2ccccc2)c1C(=O)NCc1cc(C(F)(F)F)cc(C(F)(F)F)c1 | 
52 | 100 | CN(Cc1cc(C(F)(F)F)cc(C(F)(F)F)c1)C(=O)c1c(CBr)nc2ccccc2c1-c1ccccc1 | 
11 | 100 | COCc1nc2ccccc2c(-c2ccccc2)c1C(=O)N(C)Cc1cc(C(F)(F)F)cc(C(F)(F)F)c1 | 
0.011 | 82 | CNCc1nc2ccccc2c(-c2ccccc2)c1C(=O)NCc1cc(C(F)(F)F)cc(C(F)(F)F)c1 | 
> 1000 |  | O=C(NCc1cc(C(F)(F)F)cc(C(F)(F)F)c1)c1c(CN2C(=O)c3ccccc3C2=O)nc2ccccc2c1-c1ccccc1 | 
17 | 100 | CC(C)(C)[Si](C)(C)OCc1nc2ccccc2c(-c2ccccc2)c1C(=O)NCc1cc(C(F)(F)F)cc(C(F)(F)F)c1 | 
> 1000 |  | CN1CCN(Cc2nc3ccccc3c(-c3ccccc3)c2C(=O)NCc2cc(C(F)(F)F)cc(C(F)(F)F)c2)CC1 | 
0.01 | 71 | O=C(NCc1cc(C(F)(F)F)cc(C(F)(F)F)c1)c1c(CBr)nc2ccccc2c1-c1ccccc1 | 
0.075 | 78 | Cc1nc2ccccc2c(-c2ccccc2)c1C(=O)NCc1cc(C(F)(F)F)cc(C(F)(F)F)c1 | IC50 [3]: 3900 nM
> 1000 |  | O=C(NCc1cc(C(F)(F)F)cc(C(F)(F)F)c1)c1cnc2ccccc2c1-c1ccccc1 | 
26 | 57 | O=C(NCc1cc(C(F)(F)F)cc(C(F)(F)F)c1)c1c(CCl)nc2ccccc2c1-c1ccccc1 | 
 | 75 | CN(Cc1cc(C(F)(F)F)cc(C(F)(F)F)c1)C(=O)c1c(CO)nc2ccccc2c1-c1ccccc1 | 
0.22 | 40 | CN(C)Cc1nc2ccccc2c(-c2ccccc2)c1C(=O)NCc1cc(C(F)(F)F)cc(C(F)(F)F)c1 | IC50 [3]: 11 nM
0.0001 | 100 | O=C(NCc1cc(C(F)(F)F)cc(C(F)(F)F)c1)c1c(CO)nc2ccccc2c1-c1ccccc1 | Concentration [4]: 0.1 nM; Concentration [5]: 100 nM; Concentration [6]: 1000 nM
9 | 100 | CN(Cc1cc(C(F)(F)F)cc(C(F)(F)F)c1)C(=O)c1c(CN)nc2ccccc2c1-c1ccccc1 | 
0.03 | 83 | CN(Cc1cc(C(F)(F)F)cc(C(F)(F)F)c1)C(=O)c1cnc2ccccc2c1-c1ccccc1 | 
0.0017 | 100 | NCc1nc2ccccc2c(-c2ccccc2)c1C(=O)NCc1cc(C(F)(F)F)cc(C(F)(F)F)c1 | 

Structure (SMILES) | IC50 [1] [nM] | Binding [2] [%] | further results
Ic1ccccc1CN[C@@H]1C2CCN(CC2)[C@@H]1C(c1ccccc1)c1ccccc1 | 1.6 | 100 | 
